Assay results reported in PubChem BioAssay (NCI).
Values joined by “and” are separate entries in the source; they are usually repeats but may differ in a detail not shown here. Identical values can stand only once.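 Grown in 96-well plates, cells were treated for 48 hours with each compound at five concentrations. Insufficient inhibition: endpoint recorded as highest concentration tested. At the GI50, growth is halved. TGI denotes the concentration required for complete inhibition of growth.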

Assays:
Test in all cases: NCI anticancer screen, dose series, 48 h
HT29 colon = test system: HT29 colon
NCI/ADR-RES ovarian = test system: NCI/ADR-RES ovarian
SNB-19 CNS = test system: SNB-19 CNS
TK-10 renal = test system: TK-10 renal
786-0 renal = test system: 786-0 renal
NCI-H226 lung = test system: NCI-H226 lung
SK-MEL-28 melanoma = test system: SK-MEL-28 melanoma
RPMI-8226 leukemia = test system: RPMI-8226 leukemia
MALME-3M melanoma = test system: MALME-3M melanoma
UACC-62 melanoma = test system: UACC-62 melanoma

SMILES | TGI (HT29 colon) | TGI (NCI/ADR-RES ovarian) [µM] | TGI (SNB-19 CNS) [µM] | TGI (TK-10 renal) [µM] | TGI (786-0 renal) [µM] | TGI (NCI-H226 lung) [µM] | TGI (SK-MEL-28 melanoma) [µM] | TGI (RPMI-8226 leukemia) [µM] | TGI (MALME-3M melanoma) [µM] | TGI (UACC-62 melanoma) | GI50 (HT29 colon) [µM] | GI50 (NCI/ADR-RES ovarian) [µM] | GI50 (UACC-62 melanoma) [µM]
CC(C)(C)c1c(C(C)(C)C)c(=O)c1=O | > 100 µM | > 100 | > 100 | > 100 | > 100 | > 100 | > 100 | > 100 | > 100 | > 100 µM | – | – | –
Nc1c(N=Nc2ccc(-c3ccc(N=Nc4c(O)ccc5cc(S(=O)(=O)O)cc(S(=O)(=O)O)c45)cc3)cc2)c(S(=O)(=O)O)cc2cc(S(=O)(=O)O)c(N=Nc3ccccc3)c(O)c12 | > 100 µM | > 100 | > 100 | – | – | > 95 | > 100 | > 100 | > 100 | > 100 µM | – | – | –
O=[N+]([O-])/C=C/c1cn(CCCCCn2cc(/C=C/[N+](=O)[O-])c3ccccc32)c2ccccc12 | 7.82 µM | 35.4 | 24.2 | 5.37 | 1.35 | 4.36 | 12.2 | > 100 | 5.95 | 31.5 µM | – | – | –
NC(=O)C1=CC2C3C=CC2(O)C(=O)OC3O1 (stereo not drawn) | 9.83 µM | 7.22 | 60.9 | 16.7 | 16 | 5.83 | 8.48 | > 29.5 | 4.03 | 7.74 µM | – | – | –
O=C1CSc2nnc(CCCCCCCCc3nnc4n3NC(=O)CS4)n2N1 | > 100 µM | > 100 | > 100 | – | > 100 | > 100 | > 100 | > 100 | > 100 | > 100 µM | – | – | –
Cc1ccc(/C=C2\CN(C)CC3C2=NC(=S)NC3c2ccc(C)cc2)cc1 (stereo not drawn) | > 100 µM | > 100 | > 100 | > 100 | > 100 | > 100 | > 100 | > 100 | > 100 | > 100 µM | – | – | –
O=S(=O)(O)C1CCC(O)C2[N-]CCCC21.O=S(=O)(O)C1CCC(O)C2[N-]CCCC21.[Zn+2] (stereo not drawn) | > 100 µM | > 100 | > 100 | > 100 | > 100 | > 100 | > 100 | > 100 | > 100 | > 100 µM | – | – | –
Cc1c2cccc-2ccc2c1[nH]c1ccccc12 | 14.4 µM | > 27.3 | 10.3 | 4.92 | 10.1 | 3.92 | 3.67 | 8.28 | 4.03 | 3.79 µM | – | – | –
C=CCOC(=O)CCCCCCCCCCCCCCCOC(=O)C1=C(CCC[C@@H](C)O[Si](C)(C)C(C)(C)C)NC(=O)N2[C@H](CC3(CC/C=C\[C@H](CC)O[Si](C(C)C)(C(C)C)C(C)C)OCCO3)CC[C@H]12 | – | > 100 | > 100 | > 100 | > 100 | > 100 | > 100 | > 100 | > 100 | > 100 µM | – | – | –
CCN(CC)CCN(C)CCc1ccc(Br)cc1 | > 100 µM | > 100 | > 100 | > 100 | > 100 | > 100 | > 100 | > 100 | > 100 | – | – | – | –
CNc1ccc(S(=O)Nc2ccccc2)cc1 (stereo not drawn) | > 100 µM | > 100 | > 100 | > 100 | > 100 | > 100 | > 100 | > 100 | > 100 | 81.3 µM | – | – | –
CC(C)(C)c1ccc(-c2nnc(-c3cc(C#N)cc(-c4nnc(-c5ccc(C(C)(C)C)cc5)o4)c3)o2)cc1 | > 100 µM | > 100 | > 100 | > 100 | > 100 | > 100 | > 100 | > 100 | > 100 | > 100 µM | – | – | –
COC(=O)C(C(=O)C(=O)NC1Nc2ccc(C)cc2S1)c1nc2ccc(Cl)cc2[nH]c1=O (stereo not drawn) | > 100 µM | > 100 | > 100 | > 100 | > 100 | > 100 | > 100 | > 100 | > 100 | > 100 µM | – | – | –
CC1=C2NCN(C)N=C2C(C#N)(C#N)C1(C#N)C#N | 51.3 µM | > 68.5 | > 95.2 | 31 | 37.7 | > 100 | 49.9 | 37.3 | 44.2 | 46.8 µM | – | – | –
CCCNC(=O)CCC(C)[C@H]1CCC2C3C(C[C@H](OC(C)=O)[C@@]21C)[C@@]1(C)CCC2(C[C@H]1C[C@H]3OC(C)=O)OOC1(CCCCC1)OO2 (stereo partly drawn) | > 90.8 µM | 8.45 | > 100 | 4.32 | 6.53 | > 57.2 | > 100 | 4.68 | 6.04 | > 100 µM | – | – | –
CC(=O)O[C@H]1C(=O)N(c2cc3c4ccccc4ccc3c3ccccc23)[C@@H]1c1ccccc1 | 6.98 µM | 29.5 | > 100 | 47.1 | 15.9 | 40.3 | 66.4 | 6.77 | 54.1 | 24 µM | – | – | –
Cn1c(=O)sc2cc(C(=S)N3CCOCC3)ccc21 | > 100 µM | > 100 | > 100 | > 100 | > 100 | > 100 | > 100 | > 100 | > 100 | > 100 µM | – | – | –
CCCCCCOP(=O)(OCCCCCC)OC(C(=O)OC)C(F)(F)F (stereo not drawn) | > 100 µM | > 100 | > 100 | > 100 | > 100 | > 100 | > 100 | > 100 | > 100 | > 100 µM | – | – | –
CC(C)=CCC[C@@H](C)c1c2[nH]c3ccccc3sc-2c(C)c(=O)c1=O | > 27.4 µM | 12.1 | > 75 | > 75 | 24.1 | 11.1 | > 75 | 25 | > 29.1 | 68.6 µM | – | – | –
CCOC(=O)/C(C#N)=C/N(CC)/N=C/c1ccccc1 | > 100 µM | > 100 | > 100 | > 100 | > 100 | > 100 | > 100 | > 100 | > 100 | > 100 µM | – | – | –
CC(C)(C)CC(C)(C)c1ccc(OCCOCC[N+](C)(C)Cc2ccccc2)cc1 | 2.49 µM and 3.3 µM | 38.8 | 11.9 | 17.3 | 24.4 | 15.7 | 3.68 | 3.83 | 3.64 | 2.09 µM and 2.67 µM | 1.14 | 16.2 | 0.678
